Where a name gives a salt, the structure may show the parent alone.

From patent publication US20110268818A1, “NGAL-BINDING SIDEROPHORES AND USE THEREOF TO TREAT IRON DEFICIENCY AND IRON OVERLOAD” (priority 2008, published 2011) come the findings set out here.

The target in series [1] is T1, NGAL (Homo sapiens, UniProt P80188).
T1 construct: made in house; host or cells: E. coli BL-21
As to the kind of experiment: NGAL:siderophore:iron binding assay (retention on 10 kDa filter). To be noted: for NGAL: Chelator: Fe % Retention: apoNGAL 10 μM, 55Fe, compound 10 μM, pH 7.4, washed on 10 kDa filter; for NGAL-siderophore-Fe binding activity (in words): iron retention by NGAL on filter. The procedure: NGAL:Siderophore:Iron Binding Assays. […] After 60 minutes, the mixture was washed 3 times (YM-10) or alternatively gel filtered (PD-10, GE Biosciences). Ent loaded NGAL served as a positive control. Ferric citrate (1 mM) or Ent:iron (500 μM) served as competitors of ^55Fe binding.
After 60 minutes at room temperature, the mixture was then washed 3 times on a 10-kDa membrane (Amicon YM-10; Millipore Corp.). Ngal loaded with iron-free enterochelin (rather than apo-Ngal) served as a positive control for iron capture. Ferric citrate (1 mM) or iron-loaded enterochelin (siderophore:Fe, […]) was used as a competitor of 55Fe binding.

Series [2] can be described thus: Catechol sulfate stability followed by silica gel TLC. It counts as physicochemical. The source says: FIG. 29 is a reproduction of Silical gel TLC developed by Dichlorlmethane: MeOH:H2O=5:1:0.1, and colored by 12.
The nature of series [3]: Siderophore:iron binding assay (paper chromatography). The note with it: for Fe: Chromatography: 55Fe mobilised by compound on paper chromatogram developed in water, Yes/No. The source says:
Siderophore:Iron Binding Assay. To test whether candidates bound iron directly, candidates (1 nmole) were mixed with ^55Fe (1 pmole), and then separated bound from free ^55Fe using paper chromatography developed in water.
Paper chromatography: The Fe-Siderophore Binding Assay: The concept underlying the Ngal-siderophore-Fe binding assay is that the urinary molecule provides an iron binding siderophore, and that the Ngal protein provides the carrier which retains the siderophore:Fe on the 10 KDa filter. […] To directly test this idea, we will mix 55Fe with HMDB compounds and then separate bound from free 55Fe by using paper chromatography. […] The assay also provides an independent means to follow the purification of the urinary siderophore. Using this assay, we can measure the specific activity of the fractions to identify the peak activity, as well as to compare the urinary fraction with enterochelin to establish relative units of activity.

For series [4], the target named is T1, NGAL. As to the kind of experiment: Release of ligands and iron from NGAL complexes by acidification. It counts as physicochemical. The note with it: fluorescence and 55Fe release. The source says: FIGS. 6A-6C. Release of ligands from NGAL by acidification. […] Fluorescence was quenched by ligand binding. Upon acidification, the ligands were released and fluorescence returned to baseline. Subsequent basification, where relevant, caused rebinding. Note that NGAL:pyrogallol and 2,3-dihydroxybenzoic acid complexes required much lower pH for dissociation. (B) Release of ^55Fe from different NGAL:catecholate complexes by low pH washes on a 10 KDa microcon. For this comparison, the retention of iron at pH7.0 was defined as 100%. […] Data were presented as mean±Std.
To transport iron from plasma to cells there has to be a mechanism for releasing iron from the complex. Intracellular delivery of iron by transferring is known to require passage through acidified endosomes where iron is released. […] While the complex was stable at neutral pH, acidification below pH 7.0 progressively reversed ligand-dependent fluorescence quenching of NGAL and released iron (FIG. 6A, B).
Fluorescence quenching binding assay. […] The pH was adjusted until the fluorescence signal stopped changing, while fluorescence values were corrected for dilution. Data were analyzed by a nonlinear regression analysis using a one-site binding model (Kuzmic, P. (1996). Program DYNAFIT for the analysis of enzyme kinetic data: application to HIV proteinase. Anal. Biochem. 237, 260-273). […]

The target in series [5] is T1, NGAL. As to the kind of experiment: Fluorescence quenching binding assay. The procedure: Fluorescence quenching binding assay. […] The pH was adjusted until the fluorescence signal stopped changing, while fluorescence values were corrected for dilution. […] Control experiments were performed to ensure the stability of the protein at experimental conditions, including the dilution and the addition of DMSO and ubiquitin.

Series [6] can be described thus: Catechol and iron traffic to the kidney in vivo. To be noted: mouse.
Series [7] can be described thus: Hydroxyl radicals detected by conversion of HPF to fluorescein. Type of series: biochemical. To be noted: catechol, ferric iron and H2O2. The source says: NGAL Blocks Iron Induced Hydroxyl Radicals. […] Hydroxyl radicals were detected by the conversion of HPF to fluorescein (Setsukinai, K., Urano, Y., Kakinuma, K., Majima, H. J., Nagano, T. (2003). Development of Novel Fluorescence Probes That Can Reliably Detect Reactive Oxygen Species and Distinguish Specific Species. J Biol Chem. 278, 170-3175) using […].

The nature of series [8]: Free catechol stability in solution monitored by NMR. Type of series: physicochemical. To be noted: monitored for 20 hrs by NMR, D2O. The source says: J. Agric Food Chem. 54, 5755-5762; Carmella, S. G., La, V. E. J., Hecht, S. S. (1982). […] Food Chem Toxicol. 20, 587-590) and aromatic amino acids (˜50%; Martin et al., 1982; Carmella et al., 1982; Bakke, O. M. (1969). Urinary simple phenols in rats fed purified and nonpurified diets. J. Nutr. 98, 209-216). […] Using urinary biomarkers to elucidate dose-related patterns of human benzene metabolism. Carcinogenesis 27, 772-781), whereupon they are sulfonated (Rennick, B., Quebbemann, A. (1970). Site of excretion of catechol and catecholamines: renal metabolism of catechol. Am. J. Physiol. 218, 1307-1312).

The subject of series [9] is Mouse stromal cells. As to the kind of experiment: Capture of NGAL:siderophore:55Fe by stromal cells. It counts as cell-based. To be noted: bafilomycin inhibits vacuolar H+ ATPase. As to the method:
Capture of NGAL:Siderophore:Iron. Mouse stromal cells (10^5) were grown in MEM, 10% FCS for 24 hrs and FCS subsequently removed. […] Cells were washed 3 times and extracted with 0.2% SDS.

A short description of series [10]: Reduction of Fe3+ to Fe2+ detected with phenanthroline. It counts as biochemical. To be noted: catechols 45 μM, ferric iron 15 μM, NGAL 15 μM.

As for `O=S(=O)([O-])Oc1ccccc1O.[Na+]`, the “NGAL: Chelator: Fe % Retention” value in series [1] is reported as 4%. In addition, the “stability in methanol at pH≦6” value in series [2] (incubated for 1 hour) is recorded as “decompose”. Also, the stability in urine entry in series [2] (incubated for 48 hours) was “stable”.

As to `Cc1cccc(O)c1O` [3-methylcatechol], in [3], the “Fe: Chromatography” value was “Yes”. For the same molecule, in series [1], the “NGAL: Chelator: Fe % Retention” value was 56% and the “NGAL-siderophore-Fe binding activity (in words)” value is reported as “highest activities”. The “pH at which the NGAL:ligand:iron complex dissociates” value in series [4] worked out at 5.5 pH.

With `Cc1ccc(O)c(O)c1` [4-methylcatechol], the “Fe: Chromatography” value in [3] is “Yes”. Further, in [1], the “NGAL: Chelator: Fe % Retention” value stood at 29% and the “NGAL-siderophore-Fe binding activity (in words)” value is “highest activities”. For the same molecule, the “affinity for NGAL (in words)” value in series [5] was “low affinity”.

Regarding `Oc1ccccc1O` [Catechol], the “NGAL: Chelator: Fe % Retention” value in series [1] amounted to 56%. Moreover, the “NGAL-siderophore-Fe binding activity (in words)” value is “most active compound” in series [1] and “highest activities” in series [1] (listed as catechol). Further, the “increase in binding affinity for NGAL in the presence of iron” value in series [5] (with iron vs without iron) was 10^5. Moreover, the “pH at which the NGAL:ligand:iron complex dissociates” value in series [4] worked out at 5.5 pH. The “clearance of free 14C-catechol by organs” value in series [6] was “rapidly cleared”. Besides, in series [7], the “conversion of HPF to fluorescein (hydroxyl radical formation)” value is reported as “Conversion of HPF to fluorescein occurs”. Moreover, the “stability of free catechol in solution” value in [8] is “stable in solution”.

Regarding `NC(=O)c1ccc[n+]([C@@H]2O[C@H](COP(=O)(O)OP(=O)(O)OC[C@H]3O[C@@H](n4cnc5c(N)ncnc54)[C@H](OP(=O)(O)O)[C@@H]3O)[C@@H](O)[C@H]2O)c1` [NADP], in [3], the “iron chelating activity by paper chromatography (in words)” value is “active” and the “Fe: Chromatography” value was “Yes”. Besides, the “NGAL: Chelator: Fe % Retention” value in [1] came out at 7%.

Turning to `NC(=O)c1ccc[n+]([C@@H]2O[C@H](COP(=O)(O)OP(=O)(O)OC[C@H]3O[C@@H](n4cnc5c(N)ncnc54)[C@H](O)[C@@H]3O)[C@@H](O)[C@H]2O)c1` [NAD], the “Fe: Chromatography” value in series [3] is “No”. In series [1], the “NGAL: Chelator: Fe % Retention” value turned out to be 12%.

Consider `O=C(O)c1cccnc1` [Nicotinic acid], for which the “Fe: Chromatography” value in [3] was “No”. Besides, the “NGAL: Chelator: Fe % Retention” value in series [1] amounted to 3%.

Turning to `O=C(O)c1cc(=O)[nH]c(=O)[nH]1` [Orotic acid], the “Fe: Chromatography” value in [3] is “No”. For the same molecule, the “NGAL: Chelator: Fe % Retention” value in [1] is 13%.

Turning to `NCc1[nH]cc(CCC(=O)O)c1CC(=O)O` [Porphobilinogen], in series [3], the “Fe: Chromatography” value is “No”. Also, the “NGAL: Chelator: Fe % Retention” value in series [1] is 3%.

Turning to `Cc1ncc(CO)c(C=O)c1O` [Pyridoxal], the “Fe: Chromatography” value in [3] was “No”. Also, the “NGAL: Chelator: Fe % Retention” value in series [1] is given as 1%.

`O=C(/C=C/c1ccc(O)c(O)c1)O[C@H](Cc1ccc(O)c(O)c1)C(=O)O` [Rosmarinic acid]: in series [3], the “iron chelating activity by paper chromatography (in words)” value is “active” and the “Fe: Chromatography” value is “Yes”. In [1], the “NGAL: Chelator: Fe % Retention” value turned out to be 50% and the “NGAL-siderophore-Fe binding activity (in words)” value is on record as “active”.

For the molecule `O=C(O)c1ccccc1O` [Salicylic acid], in [3], the “Fe: Chromatography” value is reported as “No”. Also, the “NGAL: Chelator: Fe % Retention” value in series [1] is reported as 15%.

With `CCC1C(=O)NC(CC2=N/C(=C\c3[nH]c(CC4NC(=O)C(C)C4CC)c(C)c3CCC(=O)O)C(CCC(=O)O)=C2C)C1C` (stereo not drawn) [Urobilin HCl], the “Fe: Chromatography” value in series [3] was “No”. In addition, the “NGAL: Chelator: Fe % Retention” value in series [1] came to 3%.

Turning to `CO/C1=C\C(C)=C\[C@@H](C)[C@@H](O)[C@@H](C)C/C(C)=C/C=C/[C@H](OC)[C@@H]([C@@H](C)[C@@H](O)[C@H](C)[C@@]2(O)C[C@@H](O)[C@H](C)[C@@H](C(C)C)O2)OC1=O` [bafilomycin], the “iron donation from NGAL:catechol:iron complex to cells” value in series [9] is on record as “blocked”.

On to Maleic acid, for which the “Fe: Chromatography” value in series [3] is “No”. In addition, in [1], the “NGAL: Chelator: Fe % Retention” value stood at 4%.

B1: NGAL: Neutrophil Gelatinase Associated Lipocalin, recombinant protein (protein, UniProt P80188 21-198, looked up)
Neutrophil …: QDSTSDLIPAPPLSKVPLQQNFQDNQFQGKWYVVGLAGNAILREDKDPQKMYATIYELKEDKSYNVTSVLFRKKKCDYWIRTFVPGCQPGEFTLGNIKSYPGLTSYLVRVVSTNYNQHAMVFFKKVSQNREYFKITLYGRTKELTSELKENFIRFSKSLGLPENHIVFPVPIDQCIDG
Turning to B1, the “reduction of ferric iron to ferrous iron (phenanthroline)” value in [10] is “blocked the reaction”. In addition, the “conversion of HPF to fluorescein (hydroxyl radical formation)” value in series [7] was “blocked the reaction”.
